Data on one molecule can be found in EP2233566A1, “Generation of pancreatic progenitor cells” (Vrije Universiteit Brussel, priority 2009, dated 2010).

Molecules are shown by their SMILES.

In the test the test system is human embryonic stem cells-derived definitive endoderm. Description: Hepatic differentiation (AFP / albumin expression) of hES cell-derived definitive endoderm. It is filed as cell-based. The protocol:
Cells were split in 4-well plates and differentiation performed in five stages as previously published (D'Amour et al. 2006 (supra); Table 2). Briefly, for DE induction 80% confluent cultures were washed with PBS and treated with 100 ng/ml Activin-A (RnD Systems) and 25 ng/ml Wnt3a (RnD Systems) for 24h in RPMI (Invitrogen) supplemented with antibiotics and Glutamax; then they were further treated with 100 ng/ml Activin-A in RPMI containing 0.2% FBS (PAA Laboratories) for 48h. PGT stage cells were treated with 50 ng/ml FGF10 (RnD Systems), 250 nM KAAD-Cyclopamine (Calbiochem) and 2% FBS in RPMI medium for 3 or 4 days. In the PFG stage (3-4 days), the medium was changed to DMEM supplemented with Glutamax, antibiotics, 1% B27 (Invitrogen), 2 µM retinoic acid (RA, Sigma), FGF10 and KAAD-Cyclopamine. […]
At each stage, cultures were washed with PBS, fixed for 10-15 min at room temperature in 4% formaldehyde and rinsed several times. […] Immunocytochemistry was performed for the detection of Hnf1B using a donkey horse radish peroxidase (HRP)-conjugated secondary antibody and detected by the ABC complex (Dako) as previously described in Mfopou et al. 2007 (Stem Cells 25: 1156-1165). […]

As to `Cc1c[nH]c(/C=C2\C(=O)Nc3ccccc32)c1CCC(=O)O` [SU5402], where the note is “SU5402 (250 nM) alone”, the “albumin expression by the pancreas endoderm stage” value is recorded as “attenuates albumin expression”. Further, the reduced hepatic differentiation result (SU5402 added in PGT and PFG stages (FGF signalling inhibition)) is listed as “at least 50%”.
